Measurements taken from PMC7067850, “Identification of highly potent and selective inhibitor, TIPTP, of the p22phox-Rubicon axis as a therapeutic agent for rheumatoid arthritis” (Scientific Reports, 2020).
pIC50: −log10 of the molar value.

What was measured:
[1] = biological target: T1, p22phox–Rubicon interaction (Homo sapiens, UniProt P13498); assay: p22phox–Rubicon interaction, co-IP in 293T cells co-transfected with V5-p22phox and Flag-Rubicon; type: cell-based; settings: inhibition of p22phox–Rubicon interaction, compounds 0.01-20 μM for 24 h (Supplemental Fig. 5a)
T1 construct: The plasmid encoding full-length of the p22phox (V5-p22phox) and Rubicon (Flag-Rubicon) were previously described; expressed in transfected cells; host or cells: HEK293T (293T) cells, transient co-transfection
T1 sequence (P13498 1-195): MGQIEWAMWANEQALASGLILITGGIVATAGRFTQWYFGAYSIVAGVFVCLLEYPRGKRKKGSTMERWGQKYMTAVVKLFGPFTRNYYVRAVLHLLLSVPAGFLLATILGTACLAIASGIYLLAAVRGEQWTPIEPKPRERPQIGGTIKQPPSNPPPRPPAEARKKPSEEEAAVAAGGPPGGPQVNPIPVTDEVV
Description: Immunoblot and immunoprecipitation assays were performed as described previously[18],[23]. For immunoprecipitation, cells were harvested and then lysed in NP-40 buffer supplemented with a complete protease inhibitor cocktail (Roche). After pre-clearing with protein A/G agarose beads (GE Healthcare Life Science) for 1 h at 4 °C, whole-cell lysates were used for immunoprecipitation with the indicated antibodies. Generally, 1–4 μg of commercial antibody was added to 1 ml of cell lysates and incubated at 4 °C for 8 to 12 h. After the addition of protein A/G agarose beads for 6 h, immunoprecipitants were extensively washed with lysis buffer and eluted with SDS loading buffer by boiling for 5 min.
For immunoblotting, polypeptides were resolved by SDS-polyacrylamide gel electrophoresis and transferred to a PVDF membrane (Bio-Rad). […] Antibody binding was visualized by chemiluminescence (ECL; Millipore) and detected by a Vilber chemiluminescence analyzer (Fusion SL 3; Vilber Lourmat).
(a) 293T cells were co-transfected with V5-p22phox and Flag-Rubicon. 12 h post transfection, cells were treated with compound 1 or 2 (0.01, 0.1, 1, 5, 10, 20 μM) for 24 h, and subjected to IP with αFlag, followed by IB with αV5. WCLs were used for IB with αFlag, αV5, or αActin. […]

[2] = Plasma stability assay; type: in vitro ADME; settings: 37 °C
Description: Human plasma in each culture tube, treated with test compound (10 μM), was incubated at 37 °C for 0, 30 and 120 min. At the determined period of time, internal standard solution of chlopropamide in acetonitrile was added into each culture tube and then tubes were vortexed for 5 min, and then centrifuged for 5 min (14,000 rpm, 4 °C). The supernatant was then injected into LC-MS/MS system to analyze the plasma stability of the tested compound.

[3] = Microsomal stability assay (human liver microsomes); type: in vitro ADME
Description: To human liver microsomes (0.5 mg/mL) were added 0.1 M phosphate buffer (pH 7.4) and tested compounds (1 μM). After incubation at 37 °C for 5 min, NADPH generation system solution was added and incubated at 37 °C for 30 min. To terminate reaction, acetonitrile including internal standard (chloprapamide) was added, and the solution was centrifuged for 5 min (14,000 rpm, 4 °C). The supernatant was then injected into the LC-MS/MS system to analyze the microsomal stability of the tested compound.

C[C@@H](Oc1cccc(-n2cc3c(n2)CCCC3)c1)C(=O)Nc1nnc(C(F)(F)F)s1 [TIPTP, (R)-2-(3-(4,5,6,7-tetrahydro-2H-indazol-2-yl)phenoxy)-N-(5-(trifluoromethyl)-1,3,4-thiadiazol-2-yl)propanamide]
pIC50 [1]: 7.00 | Human plasma stability (% remaining after 30 min) ([2]; 10 μM, 30 min, listed as TIPTP (2)): 97.4% | Human plasma stability (% remaining after 2 h) ([2]; 10 μM, 2 h, listed as TIPTP (2)): 93.8% | remaining at 0.5 h, 10 μM ([2]; human, plasma, 30 min, read-out: Human plasma stability (% remaining after 30 min)): 97% | remaining at 2 h, 10 μM ([2]; human, plasma, 2 h, read-out: Human plasma stability (% remaining after 2 h)): 94% | metabolism in human hepatic microsomes ([3]; in words): easily metabolized | remaining at 0.5 h, 1 μM ([3]; pH 7.4, human liver microsomes 0.5 mg/mL, 1 μM, 30 min, read-out: Human liver microsomal stability (% remaining after 30 min)): 4.4%
